Results from US8809333B2, “Imidazole, pyrazole, and triazole derivatives useful as antibacterial agents” (Pfizer Inc., priority 2011, dated 2014).
pIC50: −log10 of the molar value. ≈ marks a conversion by molar mass, not a printed value. Read-outs that look alike come from different tables or passages of the source.

Key:
[1] = biological target: T1, Pseudomonas aeruginosa LpxC enzyme (Pseudomonas aeruginosa, UniProt P47205); assay: IC50 assay, LpxC enzyme from P. aeruginosa (BioTrove RapidFire mass spectrometry); assay type: biochemical
T1 construct: made in house; host or cells: E. coli
T1 sequence (P47205 1-303): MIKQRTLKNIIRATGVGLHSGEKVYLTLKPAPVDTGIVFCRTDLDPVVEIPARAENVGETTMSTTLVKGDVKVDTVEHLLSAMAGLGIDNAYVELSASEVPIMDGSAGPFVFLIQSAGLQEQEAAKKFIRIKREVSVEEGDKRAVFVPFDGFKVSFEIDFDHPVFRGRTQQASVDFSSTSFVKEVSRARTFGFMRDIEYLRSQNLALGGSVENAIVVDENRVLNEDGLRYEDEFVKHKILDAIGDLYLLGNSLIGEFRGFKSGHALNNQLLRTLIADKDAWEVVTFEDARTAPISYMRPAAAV
Description: In order to assess the compounds biological activity, selected in-vitro assays were conducted on selected compounds of Formula I. One of the assays measured the compounds ability to disrupt the synthesis of lipopolysaccharide, LPS, which is a component of the outer membrane of Gram-negative bacteria. Disruption of this synthesis is lethal to the bacteria. The assay determined the compound's ability to inhibit LpxC, which is the first enzyme in the biosynthetic pathway for LPS (measured as IC50). Additionally, MICs (minimal inhibitory concentrations) were determined for several bacteria. The specific protocols are described below:
A) IC50 Assay, LpxC Enzyme from P. Aeruginosa Labeled as PA LpxC Enzyme IC50):
At the end of 1 hour, 5 ul of 1 N HCl was added to stop the enzyme reaction, the plates were centrifuged, and then processed with the BioTrove Rapidfire HTMS Mass Spectrometry System. A no-enzyme control was used in calculating the IC50 values from the percent conversion values.

[2] = tested on: Acinetobacter baumannii/haemolyticus: Multidrug-resistant clinical isolate (AB-3167); assay: MIC determination (CLSI), AB-3167; assay type: cell-based; conditions: for MIC: read-out: AB-3167 (MIC)
Description: (§1) The in vitro antibacterial activity of compounds described in the Examples was evaluated by minimum inhibitory concentration (MIC) testing according to Clinical and Laboratory Standards Institute (CLSI) Guidelines. See: Clinical and Laboratory Standards Institute. Methods for Dilution Antimicrobial Susceptibility Tests for Bacteria that Grow Aerobically; Approved Standard-Eighth Edition. CLSI document M7-A8 [ISBN 1-56238-689-1]. Clinical and Laboratory Standards Institute, 940 West Valley Road, Suite 1400, Wayne, Pa. 19087-1898 USA, 2006; also Clinical and Laboratory Standards Institute. Performance Standards for Antimicrobial Susceptibility Testing; Twentieth Informational Supplement. CLSI document M100-S20 [ISBN1-56238-716-2]. Clinical and Laboratory Standards Institute.
(§2) The MIC determination is a standard laboratory method for evaluating the antibacterial activity of a compound. The MIC represents the lowest drug concentration that inhibits visible growth of bacteria following overnight incubation. […] Typically, the drug concentration range is broken down into 2-fold increments (e.g. 0.06 μg/mL, 0.12 μg/mL. 0.25 μg/mL, 0.50 μg/mL, 1.0 μg/mL, etc.) and the various drug concentrations are all individually incubated overnight with approximately the same number of bacteria. The MIC is then determined by visually inspecting the drug effect at each concentration, and identifying the lowest drug concentration that has inhibited bacterial growth as compared to the drug free control. Typically, bacteria continue to grow at drug concentrations lower than the MIC and don't grow at concentrations at and above the MIC.
(§3) The MIC values described in Tables 2 and 3 below were derived from assays wherein each test compound was evaluated in duplicate. In cases where the duplicate values varied by 0-2-fold, the lower of the two values was reported below. Generally speaking, if the duplicate values varied by more than 2-fold, the assay was considered non-valid and was repeated until the variation between duplicate runs was ≦2-fold. In line with the CLSI guidelines referred to above, both control organisms and reference compounds were utilized in each MIC assay to provide proper quality control. MIC values generated with these control organisms and reference compounds were required to fall within a defined range for the assay to be considered valid and be included herein. Those skilled in the art will recognize that MIC values can and do vary from experiment to experiment. Generally speaking, it should be recognized that MIC values often vary +/−2-fold from experiment to experiment. While a single MIC is reported for each compound and each microorganism, the reader should not conclude that each compound was only tested once. Several of the compounds were subjected to multiple tests. The data reported in Tables 2 and 3 is reflective of the compounds relative activity and different MICs may have been generated on these occasions in line with the guidelines described above.
(§4) The following bacterial strains were used in these MIC determinations:
(1) Acinetobacter baumannii/haemolyticus: Multidrug-resistant clinical isolate labeled as AB-3167 in Table 5;

[3] = tested on: Escherichia coli EC-1: VOGEL, mouse virulent; assay: MIC determination (CLSI), EC-1; assay type: cell-based; conditions: for MIC: Escherichia coli, read-out: EC-1 (MIC)
Description: as §1, §2, §3, §4
(2) Escherichia coli EC-1: VOGEL, mouse virulent labeled as EC-1 in Table 5;

[4] = tested on: Klebsiella pneumoniae: Ciprofloxacin-resistant isolate, expresses ESBL, clinical isolate (KP-3700); assay: MIC determination (CLSI), KP-3700; assay type: cell-based; conditions: overnight incubation, lower of duplicate values
Description: as §1, §2, §3, §4
(3) Klebsiella pneumoniae: Ciprofloxacin-resistant isolate, expresses extended-spectrum beta-lactamases (ESBL), clinical isolate, labeled as KP-3700 in Table 5.

[5] = tested on: Pseudomonas aeruginosa UI-18: Wild-type (PA-7); assay: MIC determination (CLSI), PA-7; assay type: cell-based; conditions: for MIC: read-out: PA-7 (MIC)
Description: as §1, §2, §3, §4
(4) Pseudomonas aeruginosa UI-18: Wild-type, labeled as PA-7 in Table 5;

[6] = P. aeruginosa LpxC enzyme 0.1 nM, 25° C., 1 hour, pH 8.0, read-out: PA: IC50
[7] = Acinetobacter baumannii/haemolyticus multidrug-resistant clinical isolate, overnight incubation, lower of duplicate values
[8] = Pseudomonas aeruginosa UI-18 wild-type, overnight incubation, lower of duplicate values

Compound	pIC50 [1, 6]	AB-3167 (MIC) [2, 7]	EC-1 (MIC) ([3]; Escherichia coli EC-1 VOGEL, mouse virulent, overnight incubation, lower of duplicate values)	KP-3700 (MIC) [4]	PA-7 (MIC) [5, 8]	MIC [2, 7]	MIC [3]	MIC [5, 8]	pIC50 [1]	MIC ([2]; Acinetobacter baumannii)	MIC ([5]; Pseudomonas aeruginosa)
(2R)-4-[4-(2-fluoro-4-methoxyphenyl)-1H-1,2,3-triazol-1-yl]-N-hydroxy-2-methyl-2-(methylsulfonyl)butanamide [Example 22]	8.92	>64.0 µg/mL	4 µg/mL	32 µg/mL	2 µg/mL	–	–	–	–	–	–
CC(CCn1cc(-c2ccc(Cl)cn2)cn1)(C(=O)NO)S(C)(=O)=O (centres unmarked) [Example 54, 4-[4-(5-chloropyridin-2-yl)-1H-pyrazol-1-yl]-N-hydroxy-2-methyl-2-(methylsulfonyl)butanamide]	8.16	–	–	>64.0 µg/mL	–	> 64 µg/mL	> 64 µg/mL	16 µg/mL (≈ 42.9 µM)	–	–	–
C[C@@](CCn1cc(-c2ccc(Cl)cc2F)nn1)(C(=O)NO)S(C)(=O)=O [Example 24, (2R)-4-[4-(4-chloro-2-fluorophenyl)-1H-1,2,3-triazol-1-yl]-N-hydroxy-2-methyl-2-(methylsulfonyl)butanamide]	–	–	–	4 µg/mL	–	> 64 µg/mL	2 µg/mL (≈ 5.12 µM)	1 µg/mL (≈ 2.56 µM)	9.18	–	–
CC(CCn1cc(-c2ccc(C(F)(F)F)nc2)cn1)(C(=O)NO)S(C)(=O)=O (centres unmarked) [Example 77, N-hydroxy-2-methyl-2-(methylsulfonyl)-4-{4-[6-(trifluoromethyl)pyridin-3-yl]-1H-pyrazol-1-yl}butanamide]	7.71	–	–	>64.0 µg/mL	–	> 64 µg/mL	> 64 µg/mL	64 µg/mL (≈ 157 µM)	–	–	–
CSc1cccc(OCc2cn(CCC(C)(C(=O)NO)S(C)(=O)=O)nn2)c1 (centres unmarked) [Example 36, N-hydroxy-2-methyl-4-(4-{[3-(methylsulfanyl)phenoxy]methyl}-1H-1,2,3-triazol-1-yl)-2-(methylsulfonyl)butanamide]	8.19	–	–	>64.0 µg/mL	–	> 64 µg/mL	> 64 µg/mL	32 µg/mL (≈ 77.2 µM)	–	–	–
CC(C)c1ccccc1SCc1cn(CCC(C)(C(=O)NO)S(C)(=O)=O)nn1 (centres unmarked) [Example 31, N-hydroxy-2-methyl-2-(methylsulfonyl)-4-[4-({[2-(propan-2-yl)phenyl]sulfanyl}methyl)-1H-1,2,3-triazol-1-yl]butanamide]	6.52	–	–	>64.0 µg/mL	–	> 64 µg/mL	> 64 µg/mL	> 64 µg/mL	–	–	–
CC(CCn1cc(-c2ccc(C#N)c(Cl)c2)cn1)(C(=O)NO)S(C)(=O)=O (centres unmarked) [Example 64, 4-[4-(3-chloro-4-cyanophenyl)-1H-pyrazol-1-yl]-N-hydroxy-2-methyl-2-(methylsulfonyl)butanamide]	9.21	–	–	>64.0 µg/mL	–	> 64 µg/mL	64 µg/mL (≈ 161 µM)	4 µg/mL (≈ 10.1 µM)	–	–	–
CC(CCn1cc(-c2cccc(O)c2)cn1)(C(=O)NO)S(C)(=O)=O (centres unmarked) [Example 44, N-hydroxy-4-[4-(3-hydroxyphenyl)-1H-pyrazol-1-yl]-2-methyl-2-(methylsulfonyl)butanamide]	7.68	–	–	>64.0 µg/mL	–	> 64 µg/mL	> 64 µg/mL	> 64 µg/mL	–	–	–
C[C@@](CCn1cc(-c2ccc(Cl)c(Cl)c2)nn1)(C(=O)NO)S(C)(=O)=O [Example 21, (2R)-4-[4-(3,4-dichlorophenyl)-1H-1,2,3-triazol-1-yl]-N-hydroxy-2-methyl-2-(methylsulfonyl)butanamide]	–	–	–	32 µg/mL	–	–	16 µg/mL (≈ 39.3 µM)	–	8.78	> 64 µg/mL	2 µg/mL (≈ 4.91 µM)
CC(CCn1cc(-c2ccc(Cl)cc2)nn1)(C(=O)NO)S(C)(=O)=O (centres unmarked) [Example 26, 4-[4-(4-chlorophenyl)-1H-1,2,3-triazol-1-yl]-N-hydroxy-2-methyl-2-(methylsulfonyl)butanamide]	8.54	–	–	32 µg/mL	–	> 64 µg/mL	32 µg/mL (≈ 85.8 µM)	4 µg/mL (≈ 10.7 µM)	–	–	–
Cc1cccc(-c2cnn(CCC(C)(C(=O)NO)S(C)(=O)=O)c2)c1 (centres unmarked) [Example 42, N-hydroxy-2-methyl-4-[4-(3-methylphenyl)-1H-pyrazol-1-yl]-2-(methylsulfonyl)butanamide]	8.21	–	–	>64.0 µg/mL	–	> 64 µg/mL	64 µg/mL (≈ 182 µM)	4 µg/mL (≈ 11.4 µM)	–	–	–
CC(CCn1cc(-c2ccc3cc[nH]c3n2)cn1)(C(=O)NO)S(C)(=O)=O (centres unmarked) [Example 57, N-hydroxy-2-methyl-2-(methylsulfonyl)-4-[4-(1H-pyrrolo[2,3-b]pyridin-6-yl)-1H-pyrazol-1-yl]butanamide]	8.43	–	–	>64.0 µg/mL	–	> 64 µg/mL	> 64 µg/mL	64 µg/mL (≈ 170 µM)	–	–	–
CC(CCn1cc(-c2cccc(C#N)c2)cn1)(C(=O)NO)S(C)(=O)=O (centres unmarked) [Example 48, 4-[4-(3-cyanophenyl)-1H-pyrazol-1-yl]-N-hydroxy-2-methyl-2-(methylsulfonyl)butanamide]	7.53	–	–	>64.0 µg/mL	–	> 64 µg/mL	> 64 µg/mL	64 µg/mL (≈ 177 µM)	–	–	–
CC(CCn1cc(-c2cc(F)ccc2F)cn1)(C(=O)NO)S(C)(=O)=O (centres unmarked) [Example 56, 4-[4-(2,5-difluorophenyl)-1H-pyrazol-1-yl]-N-hydroxy-2-methyl-2-(methylsulfonyl)butanamide]	8.17	–	–	>64.0 µg/mL	–	> 64 µg/mL	32 µg/mL (≈ 85.7 µM)	8 µg/mL (≈ 21.4 µM)	–	–	–
CC(CCn1cc(COc2ccc3ccccc3c2)nn1)(C(=O)NO)S(C)(=O)=O (centres unmarked) [Example 30, N-hydroxy-2-methyl-2-(methylsulfonyl)-4-{4-[(naphthalen-2-yloxy)methyl]-1H-1,2,3-triazol-1-yl}butanamide]	8.42	–	–	>64.0 µg/mL	–	> 64 µg/mL	> 64 µg/mL	32 µg/mL (≈ 76.5 µM)	–	–	–
Cc1ccc2cc(-c3cnn(CCC(C)(C(=O)NO)S(C)(=O)=O)c3)ccc2n1 (centres unmarked) [Example 67, N-hydroxy-2-methyl-4-[4-(2-methylquinolin-6-yl)-1H-pyrazol-1-yl]-2-(methylsulfonyl)butanamide]	7.92	–	–	>64.0 µg/mL	–	> 64 µg/mL	> 64 µg/mL	32 µg/mL (≈ 79.5 µM)	–	–	–
